# Measurements published in article PMC3812159, “A Comparative Analysis of the Ubiquitination Kinetics of Multiple Degrons to Identify an Ideal Targeting Sequence for a Proteasome Reporter” (PLoS ONE, 2013).
# Where two headings read alike, the source gives them in different places. Residues, ends and D or L forms follow the SMILES beside them. *: point of attachment. 5FAM = O=C1OC2(c3ccc(O)cc3Oc3cc(O)ccc32)c2ccc(C(=O)*)cc21
# Columns and labels:
# [1] = tested on: endogenous proteases and peptidases found in the S100 lysates; assay: Peptidase-dependent degradation rate constants from the multi-monoubiquitination model; conditions: values multiplied by 10^3; for k5, rate constant for peptidase-dependent degradation of unmodified parent substrate: HeLa S100 cytosolic lysates 2 mg/mL, proteasome inhibited by 100 µM MG-132, pH 7.6, 37°C, 12-14 µM peptide, model-fitted (MCMC), degraded substrate not measured; for k6, rate constant for peptidase-dependent degradation of mono-ubiquitinated substrate / k7, rate constant for peptidase-dependent degradation of di-ubiquitinated substrate / k8, rate constant for peptidase-dependent degradation of tri-ubiquitinated substrate / k9, rate constant for peptidase-dependent degradation of tetra-ubiquitinated substrate: as k5, HeLa S100 lysates, MG-132, 37°C, model-fitted
# [2] = tested on: HeLa S100 cytosolic lysates as the source of E1, E2, and E3 enzymes; assay: Ubiquitin pull down assay with methylated ubiquitin, multi-monoubiquitination kinetic model; assay type: biochemical; conditions: for k1/k5, mono-ubiquitination vs. degradation of unmodified substrate: ratio of fitted rate constants, >1 favours ubiquitination, <1 degradation; for substrate ubiquitination, fluorescent intensity compared to unmodified substrate: ubiquitin pull down, methylated ubiquitin, time points up to 240 min, n = 3
# From the text: A second model based on substrate multi-monoubiquitination was developed and evaluated. This model assumed that the generation of di-, tri-, and tetra-ubiquitinated species was the result of multiple methylated ubiquitins being conjugated to the multiple available lysines found on the degron-based substrate (Figure 3a). As opposed to the polyubiquitination model, the multi-monoubiquitination model accurately fit the data for all eight degron-based substrates (Figure 3b–d, Figure S4 in File S1, Table 2). Using this model, kinetic rate constants for all ubiquitination (k1 for mono-, k2 for di-, k3 for tri-, and k4 for tetra-) and peptidase-dependent degradation steps (Table 2) were calculated. The multi-monoubiquitination model nicely corresponded to the observed results in Figure 2. […] The model also captured the preference for di-ubiquitination of the Cyclin D1 degron (k2 is two-fold greater than k1) and the equal preference of mono- and di-ubiquitination states found in the HIF-1α degron (k1 of 2.6 and k2 of 3.0). Further, the similar behavior and observed kinetics for IFNAR and TAZ degrons were mostly likely due to the fact that these degrons are recognized by the same E3 ligase, SCF^βTrCP (Table 1). To test the robustness of the multi-monoubiquitination model, a ninth substrate based on the degron from the protein β-Catenin was assessed. This substrate was selected because it is ubiquitinated by the same E3 ligase as TAZ and IFNAR1, SCF^βTrCP. The model accurately fit the data for the multi-monoubiquitination of the β-Catenin degron-based substrate with similar rate constants compared to the TAZ and IFNAR1-based substrates (Table 2). Finally, it was important to assess the validity of the model by addressing the relative goodness of fit between the experimental data and the model predictions as determined from the multi-monoubiquitination model. For this particular analysis it was decided to calculate the sample Pearson correlation coefficient (Eq. S10 in File S1), a widely used metric to measure the dependence between two variables. A correlation coefficient was calculated between the model predictions and experimental data for mono-, di-, tri-, and tetra-ubiquitinated substrate for all nine degron-based substrates (Table S1 in File S1). As per convention, a positive value approaching 1 corresponds to a very good fit, which is observed for all nine substrates indicating a good fit between model and data.
# [3] = tested on: endogenous proteases and peptidases found in the S100 lysates
# [4] = tested on: TAZ-based substrate ubiquitination (a target of the SCF^βTrCP E3 ligase); assay: Ubiquitin pull down of TAZ-based substrate with inhibitors of the E1-E3 cascade; assay type: biochemical; conditions: 2 hours at 37°C with inhibitor, gel, concentrations only in Figure 5b
# Description: Figure 5 Variations in E3 ligase activity result in fluxuations in degron-based substrate ubiquitination. (A) To evaluate the impact of different levels of E3 ligase activity, the four top performing degron-based substrates (β-Catenin, Bonger, iNOS, and p53) were incubated in lysates from four different cell lines (HeLa, U937, THP-1, and HL60) in the ubiquitin pull down assay. Further, the assay was supplemented with wild type ubiquitin to examine polyubiquitin chain formation. All reaction mixtures were incubated for 2 hours at 37°C prior to continuation with the pull down assay. (B) The effects of a NEDD8 inhibitor (MLN-4924) and an E1 inhibitor (PYR-41) were examined on the TAZ-based substrate (a target of the SCF^βTrCP E3 ligase). The ubiquitin pull down was performed as previously described with the reactions incubated for 2 hours with the listed inhibitor concentrations at 37°C prior to continuation with the pull down assay. […]
# To perform a more precise analysis of the impact of variations in E3 ligase activity on degron-based substrate ubiquitination and to identify any issues with peptide specificity, the second route of experimentation was the application of known inhibitors of the E1–E3 enzymatic cascade. […] To examine the effects of partially inhibiting SCF^βTrCP, TAZ-based substrate ubiquitination was assessed in the presence and absence of this inhibitor (Figure 5b).
Compound,"k1/k5, mono-ubiquitination vs. degradation of unmodified substrate [2]","k6, rate constant for peptidase-dependent degradation of mono-ubiquitinated substrate [3]","k7, rate constant for peptidase-dependent degradation of di-ubiquitinated substrate [3]","k8, rate constant for peptidase-dependent degradation of tri-ubiquitinated substrate [3]","k9, rate constant for peptidase-dependent degradation of tetra-ubiquitinated substrate [3]","substrate ubiquitination, fluorescent intensity compared to unmodified substrate [2]",effect of inhibitor on ubiquitination of the TAZ-based substrate [4],"k5, rate constant for peptidase-dependent degradation of unmodified parent substrate [1]","k6, rate constant for peptidase-dependent degradation of mono-ubiquitinated substrate [1]","k7, rate constant for peptidase-dependent degradation of di-ubiquitinated substrate [1]","k8, rate constant for peptidase-dependent degradation of tri-ubiquitinated substrate [1]","k9, rate constant for peptidase-dependent degradation of tetra-ubiquitinated substrate [1]"
CC[C@H](C)[C@H](NC(=O)[C@H](Cc1ccc(O)cc1)NC(=O)[C@@H]1CCCN1C(=O)[C@H](C)NC(=O)[C@H](CC(C)C)NC(=O)[C@H](C)NC(=O)[C@H](CCC(=O)O)NC(=O)[C@H](CC(C)C)NC(=O)[C@H](CC(=O)O)NC(=O)[C@H](CC(C)C)NC(=O)[C@H](CC(=O)O)NC(=O)[C@H](C)NC(=O)[C@H](CO)NC(=O)[C@H](C)NC(C)=O)C(=O)N1CCC[C@H]1C(=O)N[C@@H](C)C(=O)N[C@@H](CC(=O)O)C(=O)N[C@@H](CC(=O)O)C(=O)N[C@@H](CC(=O)O)C(=O)N[C@@H](Cc1ccccc1)C(=O)N[C@@H](CCC(N)=O)C(=O)N[C@@H](CC(C)C)C(=O)N[C@@H](CCCNC(=N)N)C(=O)N[C@@H](CCCCNC(=O)c1ccc2c(c1)C(=O)OC21c2ccc(O)cc2Oc2cc(O)ccc21)C(=O)N[C@@H](CCCCN)C(=O)N[C@@H](CCCCN)C(=O)N[C@@H](CCCCN)C(N)=O [HIF-1α] (Ac-ASADLDLEALAPYIPADDDFQLRK(5FAM)KKK-NH2),,,,,,,,7.0 (1/min)*10^3,0.1 (1/min)*10^3,0.1 (1/min)*10^3,0.4 (1/min)*10^3,0.8 (1/min)*10^3
KPFLNGGPYHSREQSTDSGLGLGSYK(FAM)KKK [TAZ],2.65,1.5 (1/min)*10^3,0.1 (1/min)*10^3,0.5 (1/min)*10^3,0.1 (1/min)*10^3,,,,,,,
K-(PEG)-KEEKDINNNVKKTK(FAM)KKK [iNOS],1.62,1.0 (1/min)*10^3,0.01 (1/min)*10^3,0.01 (1/min)*10^3,0.3 (1/min)*10^3,higher ubiquitination,,,,,,
CC(=O)N[C@@H](CCCCN)C(=O)N[C@H](C(=O)N[C@@H](CCCNC(=N)N)C(=O)NCC(=O)N[C@H](C(=O)N[C@@H](CCC(=O)O)C(=O)N[C@@H](CCC(=O)O)C(=O)N[C@H](C(=O)N[C@@H](C)C(=O)N[C@@H](CCC(=O)O)C(=O)NCC(=O)N[C@H](C(=O)N[C@H](C(=O)N[C@@H](CC(C)C)C(=O)N[C@@H](CC(C)C)C(=O)N[C@@H](CCCNC(=N)N)C(=O)N[C@@H](CCCNC(=N)N)C(=O)N[C@@H](CCCNC(=N)N)C(=O)NCC(=O)N[C@@H](CC(N)=O)C(=O)N[C@@H](CCCCNC(=O)c1ccc2c(c1)C(=O)OC21c2ccc(O)cc2Oc2cc(O)ccc21)C(=O)N[C@@H](CCCCN)C(=O)N[C@@H](CCCCN)C(=O)N[C@@H](CCCCN)C(N)=O)C(C)C)C(C)C)C(C)C)C(C)C)[C@@H](C)O [Bonger] (Ac-KTRGVEEVAEGVVLLRRRGNK(5FAM)KKK-NH2),,,,,,,,4.0 (1/min)*10^3,0.01 (1/min)*10^3,1.0 (1/min)*10^3,0.01 (1/min)*10^3,0.01 (1/min)*10^3
CC(=O)N[C@@H](CCCCN)C(=O)N1CCC[C@H]1C(=O)N[C@@H](CC(C)C)C(=O)N[C@@H](CO)C(=O)N[C@@H](CO)C(=O)N[C@@H](CO)C(=O)N[C@H](C(=O)N1CCC[C@H]1C(=O)N[C@@H](CO)C(=O)N[C@@H](CCC(N)=O)C(=O)N[C@@H](CCCCN)C(=O)N[C@H](C(=O)N[C@@H](Cc1ccc(O)cc1)C(=O)N[C@@H](CCC(N)=O)C(=O)NCC(=O)N[C@@H](CO)C(=O)N[C@@H](Cc1ccc(O)cc1)C(=O)NCC(=O)N[C@@H](Cc1ccccc1)C(=O)N[C@@H](CCCNC(=N)N)C(=O)N[C@@H](CC(C)C)C(=O)NCC(=O)N[C@@H](CCCCNC(=O)c1ccc2c(c1)C(=O)OC21c2ccc(O)cc2Oc2cc(O)ccc21)C(=O)N[C@@H](CCCCN)C(=O)N[C@@H](CCCCN)C(=O)N[C@@H](CCCCN)C(N)=O)[C@@H](C)O)C(C)C [p53] (Ac-KPLSSSVPSQKTYQGSYGFRLGK(5FAM)KKK-NH2),,0.01 (1/min)*10^3,0.01 (1/min)*10^3,0.01 (1/min)*10^3,0.33 (1/min)*10^3,,,,,,,
KKYSSQTSQDSGNYSNK(FAM)KKK [IFNAR1],0.96,0.01 (1/min)*10^3,0.01 (1/min)*10^3,0.01 (1/min)*10^3,0.1 (1/min)*10^3,,,,,,,

# Now from value to compound, other results behind:
"k1/k5, mono-ubiquitination vs. degradation of unmodified substrate [2]","k6, rate constant for peptidase-dependent degradation of mono-ubiquitinated substrate [3]","k7, rate constant for peptidase-dependent degradation of di-ubiquitinated substrate [3]","k8, rate constant for peptidase-dependent degradation of tri-ubiquitinated substrate [3]","k9, rate constant for peptidase-dependent degradation of tetra-ubiquitinated substrate [3]","substrate ubiquitination, fluorescent intensity compared to unmodified substrate [2]",effect of inhibitor on ubiquitination of the TAZ-based substrate [4],Compound,"k5, rate constant for peptidase-dependent degradation of unmodified parent substrate [1]","k6, rate constant for peptidase-dependent degradation of mono-ubiquitinated substrate [1]","k7, rate constant for peptidase-dependent degradation of di-ubiquitinated substrate [1]","k8, rate constant for peptidase-dependent degradation of tri-ubiquitinated substrate [1]","k9, rate constant for peptidase-dependent degradation of tetra-ubiquitinated substrate [1]"
,,,,,,slightly impaired,NS(=O)(=O)OC[C@@H]1C[C@@H](n2ccc3c(N[C@H]4CCc5ccccc54)ncnc32)C[C@@H]1O [MLN-4924],,,,,
,0.01 (1/min)*10^3,0.01 (1/min)*10^3,0.01 (1/min)*10^3,0.33 (1/min)*10^3,lowest degree of ubiquitination,,K-(PEG)-DVQKADVSSTGQGIDSK(FAM)KKK [SRC3],,,,,
0.47,0.01 (1/min)*10^3,0.01 (1/min)*10^3,0.01 (1/min)*10^3,1.8 (1/min)*10^3,lowest degree of ubiquitination,,KAAEEEEVSLASTPTDVRDVDIK(FAM)KKK [Cyclin D1],,,,,
,,,,,,reduced ubiquitination,CCOC(=O)c1ccc(N2NC(=O)/C(=C/c3ccc([N+](=O)[O-])o3)C2=O)cc1 [PYR-41],,,,,
